Measured values reported in ChEMBL document CHEMBL1142635, “Lupene-type triterpenes from Periploca aphylla” (J Nat Prod, 2000).
The source made the active and inactive calls. The rule behind the calls is not given here.

Assays:
[1] = Inhibition of alpha-glucosidase 4
[2] = test system: Salmonella typhi; assay: Antibacterial activity against Salmonella typhi at 100 ug after 24 hrs by agar well diffusion method; type: functional, organism-based; conditions: Salmonella enterica subsp. enterica serovar Typhi
[3] = test system: Proteus mirabilis; assay: Antibacterial activity against Proteus mirabilis at 100 ug after 24 hrs by agar well diffusion method; type: functional, organism-based
[4] = test system: Bacillus cereus; assay: Antibacterial activity against Bacillus cereus at 100 ug after 24 hrs by agar well diffusion method; type: functional, organism-based
[5] = test system: Streptococcus pyogenes; assay: Antibacterial activity against Streptococcus pyogenes at 100 ug after 24 hrs by agar well diffusion method; type: functional, organism-based
[6] = test system: Staphylococcus aureus; assay: Antibacterial activity against […] at 100 ug after 24 hrs by agar well diffusion method; type: functional, organism-based
[7] = test system: Escherichia coli; assay: Antibacterial activity against Escherichia coli at 100 ug after 24 hrs by agar well diffusion method; type: functional, organism-based

SMILES | IC50 [1] [µM] | Activity [2] | Activity [3] | Activity [4] | Activity [5] | Activity [6] | Activity [7]
C=C(C)[C@@H]1CC[C@]2(C)CC[C@]3(C)[C@H](CC[C@@H]4[C@@]5(C)CC[C@H](O)C(C)(C)[C@@H]5[C@@H](O)C[C@]43C)[C@@H]12 | 42.5 | – | – | – | – | – | –
C=C(C)[C@@H]1CC[C@]2(C)CC[C@]3(C)[C@H](CC[C@@H]4[C@@]5(C)CC[C@H](OC(=O)CCCCCCCCCCCCCCCCC)C(C)(C)[C@@H]5[C@@H](O)C[C@]43C)[C@@H]12 | – | inactive | inactive | inactive | inactive | inactive | inactive
